Assay results from patent publication US9914760B2, “Methods of identifying, isolating and using odorant and aroma receptors” (Firmenich SA, priority 2013, dated 2018).

Key:
Test in all cases: cell-based calcium-flux assay, HEK293T with Gα15
OR52N2 = target: T1, OR52N2 (Homo sapiens, UniProt Q8NGI0); details: increasing concentrations; FIG. 6A, B
T1 construct: expressed in transfected cells
T1 sequence (Q8NGI0 1-321): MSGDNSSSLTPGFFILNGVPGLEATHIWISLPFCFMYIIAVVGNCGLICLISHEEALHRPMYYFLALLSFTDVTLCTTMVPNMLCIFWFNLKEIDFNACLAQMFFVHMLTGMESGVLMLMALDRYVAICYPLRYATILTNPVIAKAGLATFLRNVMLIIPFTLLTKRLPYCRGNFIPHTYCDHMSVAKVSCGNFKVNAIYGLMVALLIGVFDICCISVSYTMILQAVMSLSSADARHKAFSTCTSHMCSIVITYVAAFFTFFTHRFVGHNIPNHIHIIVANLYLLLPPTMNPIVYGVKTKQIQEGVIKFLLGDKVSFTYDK
Description: (§1) The activity of candidate human indole and skatole malodors receptors OR52N2 (SEQ ID NO: 11 and SEQ ID NO: 12), OR11G2 (SEQ ID NO: 13 and SEQ ID NO: 14, OR5AC2 (SEQ ID NO: 75 and SEQ ID NO: 76), OR4C15 (SEQ ID NO: 79 and SEQ ID NO: 80), OR8S1 (SEQ ID NO: 83 and SEQ ID NO: 84), OR11H6 (SEQ ID NO: 15 and SEQ ID NO: 16) and OR11H4 (SEQ ID NO: 49 and SEQ ID NO: 50) and candidate mouse indole and skatole malodors receptors Olfr665 (SEQ ID NO: 9 and SEQ ID NO 10) and Olfr740 (SEQ ID NO: 1 and SEQ ID NO 2) were confirmed in cell-based calcium-flux assays (FIGS. 6A to 6J). Cells stably co-expressing Rho-tagged human OR52N2 (FIG. 6A, B) or OR11G2 (FIG. 6C) and Gα15 (SEQ ID NO: 25) were exposed to increasing concentrations of skatole or indole. FIG. 6B is a repeat experiment showing similar activity of OR52N2 with indole and skatole. Odorant-induced OR52N2 or OR11G2 activity was detected by measuring the maximum Calcium 5 dye (Molecular Devices) fluorescence change following odorant exposure. Activity is defined as the baseline corrected Relative Fluorescent Units (RFU) ratios normalized to the highest RFU in the experiment in FIG. 6A. […] A cell line lacking a receptor, for example hOR52N2, was used as a control for non-specific activity at high concentrations (‘Indole control’ and ‘Skatole control’). The human receptor OR52N2 (SEQ ID NO: 11 and SEQ ID NO: 12) was identified because of its sequence similarity to mouse Olfr665 (SEQ ID NO: 10), an indole/skatole receptor isolated from olfactory neurons responding to both indole and skatole. The human receptor OR11G2 (SEQ ID NO: 13 and SEQ ID NO: 14) was identified because of its sequence similarity to mouse Olfr740 (SEQ ID NO: 2), an indole/skatole receptor isolated from olfactory neurons responding to both indole and skatole. The receptors were modified with the Rho sequence and stably expressed in HEK 293T cells. Further examples show indole and skatole dose-response curves for human receptors OR5AC2, OR4C15, OR8S1, OR11H6, OR11H4 and mouse receptors Olfr665 and Olfr740 (FIG. 6D-J). The human receptor OR5AC2 (SEQ ID NO: 75 and SEQ ID NO: 76) was identified because of its sequence similarity to mouse Olfr207 (SEQ ID NO: 78), a receptor isolated from olfactory neurons responding to both indole and skatole. The human receptor OR4C15 (SEQ ID NO: 79 and SEQ ID NO: 80) was identified because of its sequence similarity to mouse Olfr211 (SEQ ID NO: 82), a receptor isolated from olfactory neurons responding to both indole and skatole. The human receptor OR8S1 (SEQ ID NO: 83 and SEQ ID NO: 84) was identified because of its sequence similarity to mouse Olfr257 (SEQ ID NO: 86), a receptor isolated from olfactory neurons responding to both indole and skatole. The human receptor OR11H6 (SEQ ID NO: 15 and SEQ ID NO: 16) was identified because of its sequence similarity to mouse Olfr745 (SEQ ID NO: 8), a receptor isolated from olfactory neurons responding to both indole and skatole. The human receptor OR11H4 (SEQ ID NO: 49 and SEQ ID NO: 50) was identified because of its sequence similarity to mouse Olfr746 (SEQ ID NO: 38), a receptor isolated from olfactory neurons responding to both indole and skatole. The mouse receptor Olfr665 (SEQ ID NO: 9 and SEQ ID NO: 10) was identified directly from NGS data from isolated olfactory neurons responding to both indole and skatole. The mouse receptor Olfr740 (SEQ ID NO: 1 and SEQ ID NO: 2) was identified directly from NGS data from isolated olfactory neurons responding to both indole and skatole. Co-expression of the human G alpha subunit Gα15 activates the Gq transduction pathway that leads to an internal Ca2+ increase upon binding to the appropriate ligand.

OR11H6 = target: T2, OR11H6 (Homo sapiens, UniProt Q8NGC7); details: dose-response curves FIG. 6D-J
T2 construct: expressed in transfected cells
T2 sequence (Q8NGC7 1-330): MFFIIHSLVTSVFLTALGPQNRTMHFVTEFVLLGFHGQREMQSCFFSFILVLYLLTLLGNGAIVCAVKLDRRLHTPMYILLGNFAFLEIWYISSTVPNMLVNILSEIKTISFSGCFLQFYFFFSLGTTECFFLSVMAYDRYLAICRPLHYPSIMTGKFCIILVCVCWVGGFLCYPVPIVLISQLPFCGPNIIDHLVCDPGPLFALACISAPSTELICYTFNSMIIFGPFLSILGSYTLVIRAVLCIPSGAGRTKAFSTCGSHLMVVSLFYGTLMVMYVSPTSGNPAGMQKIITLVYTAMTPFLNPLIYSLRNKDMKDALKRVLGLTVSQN
Description: as §1

OR5AC2 = target: T3, OR5AC2 (Homo sapiens, UniProt Q9NZP5); details: dose-response curves FIG. 6D-J
T3 construct: expressed in transfected cells
T3 sequence (Q9NZP5 1-309): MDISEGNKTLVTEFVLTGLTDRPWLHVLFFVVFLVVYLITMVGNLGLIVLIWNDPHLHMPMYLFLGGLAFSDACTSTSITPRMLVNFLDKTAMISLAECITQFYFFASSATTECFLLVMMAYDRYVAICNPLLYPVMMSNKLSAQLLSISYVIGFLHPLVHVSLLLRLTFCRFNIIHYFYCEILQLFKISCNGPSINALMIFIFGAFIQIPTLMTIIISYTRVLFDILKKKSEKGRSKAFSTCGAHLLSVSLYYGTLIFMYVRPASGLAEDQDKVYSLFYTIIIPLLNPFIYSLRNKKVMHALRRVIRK
Description: as §1

Row | SMILES | receptor activity (Calcium 5 dye fluorescence change) (OR52N2) | receptor response in vitro (OR11H6) | receptor response in vitro (OR5AC2)
1 | Cc1c[nH]c2ccccc12 [skatole, 3-methyl indole] | dose-dependent increase of receptor activity | responded | responded
2 | c1ccc2[nH]ccc2c1 [indole] | dose-dependent increase of receptor activity | responded | responded
